Reference: patent US10233188B2, “CDK2/4/6 inhibitors” (priority 2016, dated 2019)

Assays:
[1] = biological target: CDK2/Cyclin E1 (Homo sapiens (Human), UniProt P24941); assay: biochemical; settings: CDK2_Ki (nM), phosphorylated CDK2/Cyclin E1, 150 μM ATP, Morrison tight-binding fit
Experimental: The assay was initiated with the addition of ATP, following a fifteen minutes pre-incubation of enzyme and inhibitor at room temperature in the reaction mixture. The reaction was stopped after 45 minutes at room temperature by the addition of 50 μL of 80 mM EDTA, pH 7.5.

[2] = biological target: CDK6/Cyclin D1 (Homo sapiens (Human), UniProt Q00534); assay: biochemical; settings: CDK6_Ki (nM), non-phosphorylated CDK6/Cyclin D1, 2 mM ATP, Morrison fit
CDK6/Cyclin D1, sequence (Q00534 whole entry): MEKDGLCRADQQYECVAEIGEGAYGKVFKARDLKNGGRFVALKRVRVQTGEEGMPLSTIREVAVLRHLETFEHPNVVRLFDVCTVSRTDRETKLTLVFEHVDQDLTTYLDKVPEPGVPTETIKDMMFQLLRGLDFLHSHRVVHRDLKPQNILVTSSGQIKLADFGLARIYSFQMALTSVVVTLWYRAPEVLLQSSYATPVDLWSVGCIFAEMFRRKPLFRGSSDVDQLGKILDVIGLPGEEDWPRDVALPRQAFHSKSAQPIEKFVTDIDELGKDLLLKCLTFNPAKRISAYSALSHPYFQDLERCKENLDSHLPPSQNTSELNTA
CDK6/Cyclin D1, sequence (P24385 whole entry partner): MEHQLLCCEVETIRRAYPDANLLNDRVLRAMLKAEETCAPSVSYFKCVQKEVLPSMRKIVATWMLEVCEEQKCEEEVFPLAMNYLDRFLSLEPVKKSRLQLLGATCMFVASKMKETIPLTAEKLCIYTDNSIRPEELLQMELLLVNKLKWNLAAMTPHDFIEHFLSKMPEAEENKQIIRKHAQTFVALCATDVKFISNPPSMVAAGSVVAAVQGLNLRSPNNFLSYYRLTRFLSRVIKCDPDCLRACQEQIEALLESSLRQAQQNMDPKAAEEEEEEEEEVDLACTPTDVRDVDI

SMILES: CS(=O)(=O)N1CCC(Nc2ncc3cc(C(F)F)c(=O)n([C@H]4CC[C@H](O)C4)c3n2)CC1 (relative stereo) [Example 134, (+)-6-(difluoromethyl)-8-[(1R*,3R*)-3-hydroxycyclopentyl]-2-{[1-(methylsulfonyl)piperidin-4-yl]amino}pyrido[2,3-d]pyrimidin-7(8H)-one]
- Ki [1]: 1.25 nM
- Ki [2]: 0.53 nM

SMILES: C[C@@]1(O)CCC[C@H]1n1c(=O)c(F)cc2cnc(NC3CCN(S(C)(=O)=O)CC3)nc21 (single isomer, unassigned) [Example 5, (+)-6-fluoro-8-[(1R*,2R*)-2-hydroxy-2-methylcyclopentyl]-2-{[1-(methylsulfonyl)piperidin-4-yl]amino}pyrido[2,3-d]pyrimidin-7(8H)-one]
- Ki [1]: 4.75 nM
- Ki [2]: 13.1 nM

SMILES: Cc1cc2cnc(NC3CCN(S(C)(=O)=O)CC3)nc2n([C@@H]2CCC[C@@H](O)C2)c1=O (single isomer, unassigned) [Example 32, (+)-8-[(1R*,3R*)-3-hydroxycyclohexyl]-6-methyl-2-{[1-(methylsulfonyl)piperidin-4-yl]amino}pyrido[2,3-d]pyrimidin-7(8H)-one]
- Ki [1]: 0.84 nM
- Ki [2]: 1.1 nM

SMILES: CS(=O)(=O)N1CCC(Nc2ncc3cc(Cl)c(=O)n([C@@H]4CCC[C@@H](O)C4)c3n2)CC1 (single isomer, unassigned) [Example 34, (+)-6-chloro-8-[(1R*,3R*)-3-hydroxycyclohexyl]-2-{[1-(methylsulfonyl)piperidin-4-yl]amino}pyrido[2,3-d]pyrimidin-7(8H)-one]
- Ki [1]: 1.34 nM
- Ki [2]: 0.42 nM

SMILES: CS(=O)(=O)N1CCC(Nc2ncc3cc(Cl)c(=O)n([C@H]4CCC[C@H](O)C4)c3n2)CC1 (single isomer, unassigned) [Example 35, (−)-6-chloro-8-[(1R*,3R*)-3-hydroxycyclohexyl]-2-{[1-(methylsulfonyl)piperidin-4-yl]amino}pyrido[2,3-d]pyrimidin-7(8H)-one]
- Ki [1]: 19.2 nM
- Ki [2]: 7.82 nM

SMILES: CS(=O)(=O)N1CCC(Nc2ncc3ccc(=O)n([C@H]4CC[C@H](O)C4)c3n2)CC1 (single isomer, unassigned) [Example 53, (+)-8-[(1R*,3R*)-3-hydroxycyclopentyl]-2-{[1-(methylsulfonyl)piperidin-4-yl]amino}pyrido[2,3-d]pyrimidin-7(8H)-one]
- Ki [1]: 1.09 nM
- Ki [2]: 3.79 nM

SMILES: CS(=O)(=O)N1CC[C@H](Nc2ncc3cc(Cl)c(=O)n(C4CCCC4)c3n2)[C@H](F)C1 (single isomer, unassigned) [Example 152, (−)-6-chloro-8-cyclopentyl-2-{[(3R*,4S*)-3-fluoro-1-(methylsulfonyl)piperidin-4-yl]amino}pyrido[2,3-d]pyrimidin-7(8H)-one]
- Ki [2]: 0.43 nM

SMILES: CS(=O)(=O)N1CC[C@@H](Nc2ncc3cc(Cl)c(=O)n(C4CCCC4)c3n2)[C@@H](F)C1 (single isomer, unassigned) [Example 153, (+)-6-chloro-8-cyclopentyl-2-{[(3R*,4S*)-3-fluoro-1-(methylsulfonyl)piperidin-4-yl]amino}pyrido[2,3-d]pyrimidin-7(8H)-one]
- Ki [2]: 2.23 nM

SMILES: CS(=O)(=O)N1CC[C@H](Nc2ncc3cc(Cl)c(=O)n(C4CCCC4)c3n2)[C@@H](F)C1 (single isomer, unassigned) [Example 154, (−)-6-chloro-8-cyclopentyl-2-{[(3S*,4S*)-3-fluoro-1-(methylsulfonyl)piperidin-4-yl]amino}pyrido[2,3-d]pyrimidin-7(8H)-one]
- Ki [2]: 0.27 nM

SMILES: CS(=O)(=O)N1CC[C@@H](Nc2ncc3cc(Cl)c(=O)n(C4CCCC4)c3n2)[C@H](F)C1 (single isomer, unassigned) [Example 155, (+)-6-chloro-8-cyclopentyl-2-{[(3S*,4S*)-3-fluoro-1-(methylsulfonyl)piperidin-4-yl]amino}pyrido[2,3-d]pyrimidin-7(8H)-one]
- Ki [2]: 2.26 nM

SMILES: C[C@@H]1[C@H](n2c(=O)ccc3cnc(NC4CCN(S(C)(=O)=O)CC4)nc32)CC[C@@H]1O (single isomer, unassigned) [Example 208, (−)-8-[(1R*,2R*,3S*)-3-hydroxy-2-methylcyclopentyl]-2-{[1-(methylsulfonyl)piperidin-4-yl]amino}pyrido[2,3-d]pyrimidin-7(8H)-one]
- Ki [1]: 12.4 nM

SMILES: C[C@H]1[C@@H](O)CCC[C@@H]1n1c(=O)ccc2cnc(NC3CCN(S(C)(=O)=O)CC3)nc21 (single isomer, unassigned) [Example 222, (+)-8-[(1S*,2R*,3S*)-3-hydroxy-2-methylcyclohexyl]-2-{[1-(methylsulfonyl)piperidin-4-yl]amino}pyrido[2,3-d]pyrimidin-7(8H)-one]
- Ki [1]: 2.06 nM

SMILES: C[C@@]1(O)CCCC1n1c(=O)ccc2cnc(NC3CCN(S(=O)(=O)NC[C@H]4CCCO4)CC3)nc21 (single isomer, unassigned; (-)) [Example 64, (−)-4-({8-[(1R*,2R*)-2-hydroxy-2-methylcyclopentyl]-7-oxo-7,8-dihydropyrido[2,3-d]pyrimidin-2-yl}amino)-N-[(2R)-tetrahydrofuran-2-ylmethyl]piperidine-1-sulfonamide]
- Ki [1]: 0.35 nM

SMILES: CC1(C)CC(Nc2ncc3cc(CCO)c(=O)n(C4CCCC4)c3n2)CCN1S(C)(=O)=O (single isomer, unassigned; (-)) [Example 163, (−)-8-cyclopentyl-2-{[2,2-dimethyl-1-(methylsulfonyl)piperidin-4-yl]amino}-6-(2-hydroxyethyl)pyrido[2,3-d]pyrimidin-7(8H)-one]
- Ki [1]: 63.2 nM

SMILES: CS(=O)(=O)N1CC[C@@H](Nc2ncc3cc(N)c(=O)n(C4CCCC4)c3n2)[C@@H](F)C1 (single isomer, unassigned; isomer a) [Example 151, 6-amino-8-cyclopentyl-2-{[(3R*,4S*)-3-fluoro-1-(methylsulfonyl)piperidin-4-yl]amino}pyrido[2,3-d]pyrimidin-7(8H)-one-Isomer A]
- Ki [2]: 7.29 nM

SMILES: C[C@@]1(O)CCC[C@H]1n1c(=O)ccc2cnc(NC3CCN(S(=O)(=O)C4CCS(=O)(=O)C4)CC3)nc21 (single isomer, unassigned; isomer b) [Example 71]
- Ki [1]: 0.25 nM

SMILES: CN(C)S(=O)(=O)N1CCC(Nc2ncc3ccc(=O)n(C4CCCC4)c3n2)CC1 [Example 12, 4-[(8-cyclopentyl-7-oxo-7,8-dihydropyrido[2,3-d]pyrimidin-2-yl)amino]-N,N-dimethylpiperidine-1-sulfonamide]
- Ki [1]: 1.12 nM

SMILES: O=c1ccc2cnc(NC3CCN(S(=O)(=O)C(F)F)CC3)nc2n1C1CCCC1 [Example 14, 8-cyclopentyl-2-({1-[(difluoromethyl)sulfonyl]piperidin-4-yl}amino)pyrido[2,3-d]pyrimidin-7(8H)-one]
- Ki [1]: 2.5 nM

SMILES: Cc1cc2cnc(NC3CCN(S(=O)(=O)N(C)C)CC3)nc2n(C2CCCC2)c1=O [Example 24, 4-[(8-cyclopentyl-6-methyl-7-oxo-7,8-dihydropyrido[2,3-d]pyrimidin-2-yl)amino]-N,N-dimethylpiperidine-1-sulfonamide]
- Ki [1]: 1.59 nM

SMILES: Cc1cc2cnc(NC3CCN(S(=O)(=O)C(F)F)CC3)nc2n(C2CCCC2)c1=O [Example 26, 8-cyclopentyl-2-({1-[(difluoromethyl)sulfonyl]piperidin-4-yl}amino)-6-methylpyrido[2,3-d]pyrimidin-7(8H)-one]
- Ki [1]: 3.84 nM

SMILES: CN(C)S(=O)(=O)N1CCC(Nc2ncc3cc(CCO)c(=O)n(C4CCCC4)c3n2)CC1 [Example 27, 4-{[8-cyclopentyl-6-(2-hydroxyethyl)-7-oxo-7,8-dihydropyrido[2,3-d]pyrimidin-2-yl]amino}-N,N-dimethylpiperidine-1-sulfonamide]
- Ki [1]: 3.85 nM

SMILES: C[C@@H]1CCC[C@@H]1n1c(=O)c(Cl)cc2cnc(NC3CCN(S(C)(=O)=O)CC3)nc21 [Example 39, 6-chloro-8-[(1S,2R)-2-methylcyclopentyl]-2-{[1-(methylsulfonyl)piperidin-4-yl]amino}pyrido[2,3-d]pyrimidin-7(8H)-one]
- Ki [1]: 1.28 nM

SMILES: CNS(=O)(=O)N1CCC(Nc2ncc3cc(C)c(=O)n([C@H]4CCC[C@H]4C)c3n2)CC1 [Example 43, N-methyl-4-({6-methyl-8-[(1S,2R)-2-methylcyclopentyl]-7-oxo-7,8-dihydropyrido[2,3-d]pyrimidin-2-yl}amino)piperidine-1-sulfonamide]
- Ki [1]: 1.56 nM

SMILES: CNS(=O)(=O)N1CCC(Nc2ncc3ccc(=O)n([C@H]4CCC[C@H]4C)c3n2)CC1 [Example 45, N-methyl-4-({8-[(1S,2R)-2-methylcyclopentyl]-7-oxo-7,8-dihydropyrido[2,3-d]pyrimidin-2-yl}amino)piperidine-1-sulfonamide]
- Ki [1]: 0.93 nM

SMILES: CNS(=O)(=O)N1CCC(Nc2ncc3cc(C)c(=O)n([C@@H]4CCC[C@H]4O)c3n2)CC1 [Example 55, 4-({8-[(1R,2R)-2-hydroxycyclopentyl]-6-methyl-7-oxo-7,8-dihydropyrido[2,3-d]pyrimidin-2-yl}amino)-N-methylpiperidine-1-sulfonamide]
- Ki [1]: 4.66 nM

SMILES: C=Cc1cc2cnc(NC3CCN(S(C)(=O)=O)CC3)nc2n(C2CCCC2)c1=O [Example 138, 8-cyclopentyl-6-ethenyl-2-{[1-(methylsulfonyl)piperidin-4-yl]amino}pyrido[2,3-d]pyrimidin-7(8H)-one]
- Ki [1]: 0.87 nM

SMILES: C=CCc1cc2cnc(NC3CCN(S(C)(=O)=O)CC3)nc2n(C2CCCC2)c1=O [Example 139, 8-cyclopentyl-2-{[1-(methylsulfonyl)piperidin-4-yl]amino}-6-(prop-2-en-1-yl)pyrido[2,3-d]pyrimidin-7(8H)-one]
- Ki [1]: 4.05 nM

SMILES: CS(=O)(=O)N1CCC(Nc2ncc3cc(CC(F)F)c(=O)n(C4CCCC4)c3n2)CC1 [Example 149, 8-cyclopentyl-6-(2,2-difluoroethyl)-2-{[1-(methylsulfonyl)piperidin-4-yl]amino}pyrido[2,3-d]pyrimidin-7(8H)-one]
- Ki [1]: 2.29 nM

SMILES: C[C@H]1CC[C@@H](O)C[C@@H]1n1c(=O)ccc2cnc(NC3CCN(S(C)(=O)=O)CC3)nc21 [Example 216, 8-[(1S,2S,5R)-5-hydroxy-2-methylcyclohexyl]-2-{[1-(methylsulfonyl)piperidin-4-yl]amino}pyrido[2,3-d]pyrimidin-7(8H)-one]
- Ki [1]: 1.48 nM
